These results are taken from patent publication US20110136666A1, “CHEMICAL COMPOUNDS” (SYNGENTA CROP PROTECTION, INC., priority 2008, published 2011).

The subject of data set [1] is Alopecurus myosuroides (ALOMY). Nature of the data set: Pre-emergence biological efficacy, glasshouse pot test. Type of data set: in vivo. Conditions: 312 h, 1000 g/ha, after 13 days, 100=total damage, 0=no damage, read-out: Percentage damage caused to weed species ALOMY. An outline of the steps:
(§1)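 Pots sown with weed seeds, sprayed 1 day after sowing with test compound in acetone/water (50:50) plus 0.5% Tween 20 at 250 or 1000 g/ha. Plants grown in glasshouse at 24/16° C day/night, 14 h light, 65% humidity, watered twice daily. Damage scored visually after 13 days (0 = none, 100 = total).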

Data set [2] deals with Amaranthus retroflexus (AMARE). The description is as above. Conditions: 312 h, 1000 g/ha, after 13 days, 100=total damage, 0=no damage, read-out: Percentage damage caused to weed species AMARE. Type of data set: in vivo. The method in brief:
as §1

For data set [3], the system named is Echinochloa crus-galli (ECHCG). The data set is described as above. Type of data set: in vivo. The note with it: 312 h, 1000 g/ha, after 13 days, 100=total damage, 0=no damage, read-out: Percentage damage caused to weed species ECHCG. The method in brief:
as §1

Data set [4] relates to Ipomea hederaceae (IPOHE). The description is as above. Type of data set: in vivo. Conditions: Ipomoea hederacea, 312 h, 1000 g/ha, after 13 days, 100=total damage, 0=no damage, read-out: Percentage damage caused to weed species IPOHE. An outline of the steps:
as §1

Data set [5] has as its system Setaria faberi (SETFA). The data set is described as above. Conditions: 312 h, 1000 g/ha, after 13 days, 100=total damage, 0=no damage, read-out: Percentage damage caused to weed species SETFA. Type of data set: in vivo. The method in brief: as §1
For data set [6], the system named is Solanum nigrum (SOLNI). The data set is described as above. Type of data set: in vivo. The note with it: 312 h, 1000 g/ha, after 13 days, 100=total damage, 0=no damage, read-out: Percentage damage caused to weed species SOLNI. The method in brief: as §1
Data set [7] relates to Alopecurus myosuroides (ALOMY). Nature of the data set: Post-emergence biological efficacy, glasshouse pot test. Type of data set: in vivo. Conditions: 312 h, 1000 g/ha, after 13 days, 100=total damage, 0=no damage, read-out: Percentage damage caused to weed species ALOMY. The method in brief: (§2)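 Species sown in soil and grown 8 days in glasshouse (24/16 °C day/night, 14 h light, 65% humidity), then sprayed with compound in acetone/water (50:50) with 0.5% Tween 20 at 250 or 1000 g/ha. Damage scored visually after 13 days (0 = none, 100 = total).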

The test system of data set [8] is Amaranthus retroflexus (AMARE). The data set is described as above. Type of data set: in vivo. Conditions: 312 h, 1000 g/ha, after 13 days, 100=total damage, 0=no damage, read-out: Percentage damage caused to weed species AMARE. The method in brief:
as §2

In data set [9] the test system is Echinochloa crus-galli (ECHCG). Described as above. Conditions: 312 h, 1000 g/ha, after 13 days, 100=total damage, 0=no damage, read-out: Percentage damage caused to weed species ECHCG. It is filed as in vivo. An outline of the steps: as §2
Data set [10] deals with Ipomea hederaceae (IPOHE). The data set is described as above. Conditions: Ipomoea hederacea, 312 h, 1000 g/ha, after 13 days, 100=total damage, 0=no damage, read-out: Percentage damage caused to weed species IPONE. It is filed as in vivo. An outline of the steps: as §2
For data set [11], the system named is Setaria faberi (SETFA). The data set is described as above. Type of data set: in vivo. The note with it: 312 h, 1000 g/ha, after 13 days, 100=total damage, 0=no damage, read-out: Percentage damage caused to weed species SETFA. An outline of the steps:
as §2

For data set [12], the system named is Solanum nigrum (SOLNI). The data set is described as above. Conditions: 312 h, 1000 g/ha, after 13 days, 100=total damage, 0=no damage, read-out: Percentage damage caused to weed species SOLNI. It is filed as in vivo. The method in brief: as §2

`COC(=O)c1nc(-c2cnn(C)c2)nc(N)c1Cl` [Compound 2-71, 4-amino-5-chloro-6-methoxycarbonyl-2-(1-methyl-1H-pyrazol-4-yl)-pyrimidine] came in with a melting point of 185 to 186 °C. The pest or weed control at 1000 g/ha in data set [1] came out at 0%. Moreover, the pest or weed control at 1000 g/ha in [2] came out at 0%. The pest or weed control at 1000 g/ha in data set [3] turned out to be 0%. For the same molecule, the pest or weed control at 1000 g/ha in data set [4] worked out at 0%. Further, the pest or weed control at 1000 g/ha in data set [5] was 0%. In addition, in data set [6], the pest or weed control at 1000 g/ha came out at 0%. The pest or weed control at 1000 g/ha in [7] amounted to 0%. Moreover, the pest or weed control at 1000 g/ha in data set [8] was 0%. Besides, the pest or weed control at 1000 g/ha in data set [9] is 0%. For the same molecule, in data set [10], the pest or weed control at 1000 g/ha was 30%. In addition, the pest or weed control at 1000 g/ha in data set [11] turned out to be 0%. Besides, the pest or weed control at 1000 g/ha in [12] came out at 0%.
On to `COC(=O)c1nc(-c2ccc(C#N)nc2)nc(N)c1Cl` [Compound 2-158, 4-amino-5-chloro-2-(2-cyanopyridin-5-yl)-6-methoxycarbonylpyrimidine], for which the melting point fell in the range of 210 to 213 °C. Moreover, in [1], the pest or weed control at 1000 g/ha came to 0%. Also, the pest or weed control at 1000 g/ha in data set [2] amounted to 0%. In data set [3], the pest or weed control at 1000 g/ha was determined as 0%. In addition, the pest or weed control at 1000 g/ha in data set [4] came to 0%. Besides, in data set [5], the pest or weed control at 1000 g/ha worked out at 0%. Further, the pest or weed control at 1000 g/ha in data set [6] was 0%. Also, in data set [7], the pest or weed control at 1000 g/ha came out at 0%. The pest or weed control at 1000 g/ha in data set [8] was found to be 0%. For the same molecule, in data set [9], the pest or weed control at 1000 g/ha worked out at 0%. Also, the pest or weed control at 1000 g/ha in data set [10] was 20%. Further, the pest or weed control at 1000 g/ha in data set [11] was 0%. The pest or weed control at 1000 g/ha in data set [12] was determined as 20%.
For `CCOC(=O)c1nc(-c2ccccn2)nc(N)c1Cl` [Compound 3-149, 4-amino-5-chloro-6-ethoxycarbonyl-2-pyridin-2-ylpyrimidine], the melting point is 176 to 180 °C (dec.). Further, the pest or weed control at 1000 g/ha in [1] was 0%. Besides, the pest or weed control at 1000 g/ha in [2] was 0%. Also, in data set [3], the pest or weed control at 1000 g/ha was found to be 0%. In data set [4], the pest or weed control at 1000 g/ha came out at 0%. Also, in data set [5], the pest or weed control at 1000 g/ha was 0%. Moreover, the pest or weed control at 1000 g/ha in data set [6] was determined as 0%. Besides, the pest or weed control at 1000 g/ha in data set [7] was found to be 0%. The pest or weed control at 1000 g/ha in data set [8] stood at 0%. The pest or weed control at 1000 g/ha in data set [9] came out at 0%. In addition, the pest or weed control at 1000 g/ha in data set [10] stood at 0%. The pest or weed control at 1000 g/ha in [11] was found to be 0%. Moreover, in data set [12], the pest or weed control at 1000 g/ha is 0%.
Molecule `C=Cc1c(N)nc(-c2ccc(Cl)nc2)nc1C(=O)OC` [Compound 68-156, 4-amino-2-(6-chloropyridin-3-yl)-5-ethenyl-6-methoxycarbonyl-pyrimidine] registered a melting point of 194 to 195 °C. The pest or weed control at 1000 g/ha in [1] worked out at 10%. Also, the pest or weed control at 1000 g/ha in data set [2] turned out to be 100%. In [3], the pest or weed control at 1000 g/ha stood at 0%. Moreover, the pest or weed control at 1000 g/ha in data set [4] came out at 40%. For the same molecule, the pest or weed control at 1000 g/ha in data set [5] turned out to be 10%. In data set [6], the pest or weed control at 1000 g/ha turned out to be 40%. Moreover, in [7], the pest or weed control at 1000 g/ha worked out at 0%. In data set [8], the pest or weed control at 1000 g/ha is 100%. For the same molecule, the pest or weed control at 1000 g/ha in [9] worked out at 0%. Besides, in data set [10], the pest or weed control at 1000 g/ha stood at 50%. Also, the pest or weed control at 1000 g/ha in data set [11] is 0%. In data set [12], the pest or weed control at 1000 g/ha is 90%.
